In patent US4605744A, “Imidazole derivatives” (Hoffmann-La Roche Inc., priority 1985, dated 1986):
Where a name gives a salt, the structure may show the parent alone. Read-outs that look alike come from different tables or passages of the source.

Columns and labels:
Experiment in all cases: In vitro antibacterial activity (MIC)
Assay type in all cases: cell-based
[1] = test system: C. freundii 8ASM; conditions: C. freundii 8ASM
Procedure, shortened: (§1)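 Read-out: visible growth, checked with a viewer after overnight incubation at 37° C. Bacteria, from a 10^-2 dilution of an overnight culture, were exposed to drug at 128 to 0.008 μg/ml in Mueller-Hinton broth.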

[2] = test system: C. freundii CDC6
Procedure, shortened: as §1

[3] = test system: E. aerogenes 503-478
Procedure, shortened: as §1

[4] = test system: E. aerogenes 83
Procedure, shortened: as §1

[5] = test system: E. aerogenes 8; conditions: E. aerogenes 8
Procedure, shortened: as §1

[6] = test system: E. cloacae 24
Procedure, shortened: as §1

[7] = test system: E. cloacae 6951
Procedure, shortened: as §1

[8] = test system: E. cloacae 9570A
Procedure, shortened: as §1

[9] = test system: E. coli 387-1
Procedure, shortened: as §1

[10] = test system: E. coli 4
Procedure, shortened: as §1

[11] = test system: E. coli 503-455
Procedure, shortened: as §1

[12] = test system: E. coli R-563
Procedure, shortened: as §1

[13] = test system: K. pneumoniae 35; conditions: K. pneumoniae 35
Procedure, shortened: as §1

[14] = test system: K. pneumoniae 4964
Procedure, shortened: as §1

[15] = test system: K. pneumoniae 503-964; conditions: K. pneumoniae 503-964
Procedure, shortened: as §1

[16] = test system: K. pneumoniae 5096; conditions: K. pneumoniae 5096
Procedure, shortened: as §1

[17] = test system: K. pneumoniae 8357
Procedure, shortened: as §1

[18] = test system: K. pneumoniae A; conditions: K. pneumoniae A
Procedure, shortened: as §1

[19] = test system: K. pneumoniae HE7; conditions: K. pneumoniae HE7
Procedure, shortened: as §1

[20] = test system: P. aeruginosa 503-56; conditions: P. aeruginosa 503-56
Procedure, shortened: as §1

[21] = test system: P. aeruginosa 8710; conditions: P. aeruginosa 8710
Procedure, shortened: as §1

[22] = test system: P. aeruginosa Stone 130
Procedure, shortened: as §1

[23] = test system: P. mirabilis 190
Procedure, shortened: as §1

[24] = test system: P. mirabilis 503-1136
Procedure, shortened: as §1

[25] = test system: P. mirabilis 620A; conditions: P. mirabilis 620A
Procedure, shortened: as §1

[26] = test system: P. rettgeri ATCC 9250
Procedure, shortened: as §1

[27] = test system: P. vulgaris 101
Procedure, shortened: as §1

[28] = test system: P. vulgaris ATCC 6380
Procedure, shortened: as §1

[29] = test system: S. aureus 1059B
Procedure, shortened: as §1

[30] = test system: S. aureus Giorgio
Procedure, shortened: as §1

[31] = test system: S. aureus Smith; conditions: S. aureus Smith
Procedure, shortened: as §1

[32] = test system: S. faecalis C1; conditions: S. faecalis C1
Procedure, shortened: as §1

[33] = test system: S. marcescens 5805
Procedure, shortened: as §1

[34] = test system: S. marcescens S147; conditions: S. marcescens S147
Procedure, shortened: as §1

[35] = test system: S. marcescens S1
Procedure, shortened: as §1

[36] = test system: S. marcescens S2; conditions: S. marcescens S2
Procedure, shortened: as §1

[37] = test system: S. marcescens S3; conditions: S. marcescens S3
Procedure, shortened: as §1

[38] = test system: S. marcescens S4
Procedure, shortened: as §1

[39] = test system: S. marcescens SM
Procedure, shortened: as §1

[40] = test system: S. pneumoniae 6301
Procedure, shortened: as §1

[41] = test system: S. pneumoniae SC
Procedure, shortened: as §1

[42] = test system: S. pyogenes 4; conditions: S. pyogenes 4
Procedure, shortened: as §1

[43] = test system: S. pyogenes 503-782; conditions: S. pyogenes 503-782
Procedure, shortened: as §1

[44] = test system: S. typhi P58A
Procedure, shortened: as §1

[45] = test system: P. aeruginosa POW 151; conditions: Pseudomonas aeruginosa, POW151
Procedure, shortened: as §1

[46] = Citrobacter freundii, 8ASM, read-out: MIC
[47] = Citrobacter freundii, CDC6, C. freundii CDC6, read-out: MIC
[48] = Klebsiella aerogenes, 503478, E. aerogenes 503-478, read-out: MIC
[49] = Klebsiella aerogenes, 83, E. aerogenes 83, read-out: MIC
[50] = Klebsiella aerogenes, read-out: MIC
[51] = Enterobacter cloacae, 6951, E. cloacae 6951, read-out: MIC
[52] = Enterobacter cloacae, read-out: MIC
[53] = Escherichia coli, 3871, E. coli 387-1, read-out: MIC
[54] = Escherichia coli, R563, E. coli R-563, read-out: MIC
[55] = Klebsiella pneumoniae, read-out: MIC
[56] = Klebsiella pneumoniae, 503964, read-out: MIC
[57] = Klebsiella pneumoniae, 8357, K. pneumoniae 8357, read-out: MIC
[58] = Pseudomonas aeruginosa, read-out: MIC
[59] = Proteus mirabilis, 190, P. mirabilis 190, read-out: MIC
[60] = Proteus mirabilis, 5031136, P. mirabilis 503-1136, read-out: MIC
[61] = Proteus mirabilis, 620A, read-out: MIC
[62] = Providencia rettgeri, ATCC9250, P. rettgeri ATCC 9250, read-out: MIC
[63] = Proteus vulgaris, 101, P. vulgaris 101, read-out: MIC
[64] = Proteus vulgaris, ATCC6380, P. vulgaris ATCC 6380, read-out: MIC
[65] = Staphylococcus aureus, read-out: MIC
[66] = Serratia marcescens, 5805, S. marcescens 5805, read-out: MIC
[67] = Serratia marcescens, read-out: MIC
[68] = Serratia marcescens, S1, S. marcescens S1, read-out: MIC
[69] = Serratia marcescens, S4, S. marcescens S4, read-out: MIC

CC1(C)S[C@@H]2[C@H](N=CN3CCCC(CCn4ccnc4)CC3)C(=O)N2[C@H]1C(=O)O.Cl.O (single isomer, unassigned) [D]
MIC [1]: 0.062 µg/mL | MIC ([2]; C. freundii CDC6): 0.25 µg/mL | MIC ([3]; E. aerogenes 503-478): 8 µg/mL | MIC ([4]; E. aerogenes 83): 16 µg/mL | MIC [5]: 128 µg/mL | MIC ([6]; E. cloacae 24): 0.5 µg/mL | MIC ([7]; E. cloacae 6951): 16 µg/mL | MIC [8]: 0.5 µg/mL | MIC ([9]; E. coli 387-1): 0.125 µg/mL | MIC ([10]; E. coli 4): 0.125 µg/mL | MIC ([11]; E. coli 503-455): 1 µg/mL | MIC ([12]; E. coli R-563): 0.125 µg/mL | MIC [13]: 0.25 µg/mL | MIC ([14]; K. pneumoniae 4964): 1 µg/mL | MIC [15]: 0.25 µg/mL | MIC [16]: > 128 µg/mL | MIC ([17]; K. pneumoniae 8357): 0.25 µg/mL | MIC [18]: 0.031 µg/mL | MIC [19]: > 128 µg/mL | MIC [20]: > 128 µg/mL | MIC [21]: > 128 µg/mL | MIC [22]: > 128 µg/mL | MIC ([23]; P. mirabilis 190): 0.25 µg/mL | MIC ([24]; P. mirabilis 503-1136): 16 µg/mL | MIC [25]: 64 µg/mL | MIC ([26]; P. rettgeri ATCC 9250): 0.5 µg/mL | MIC ([27]; P. vulgaris 101): 32 µg/mL | MIC ([28]; P. vulgaris ATCC 6380): 0.125 µg/mL | MIC [29]: 128 µg/mL | MIC ([30]; S. aureus Giorgio): 16 µg/mL | MIC [31]: 32 µg/mL | MIC [32]: > 128 µg/mL | MIC ([33]; S. marcescens 5805): 2 µg/mL | MIC [34]: 0.125 µg/mL | MIC ([35]; S. marcescens S1): 0.5 µg/mL | MIC [36]: 0.5 µg/mL | MIC [37]: 0.5 µg/mL | MIC ([38]; S. marcescens S4): 1 µg/mL | MIC [39]: 0.25 µg/mL | MIC ([40]; S. pneumoniae 6301): 4 µg/mL | MIC [41]: 4 µg/mL | MIC [42]: 1 µg/mL | MIC [43]: > 128 µg/mL | MIC [44]: 0.125 µg/mL

CC1(C)S[C@@H]2[C@H](N=CN3CCC(CCn4ccnc4)CC3)C(=O)N2[C@H]1C(=O)O [B, [2S-2alpha,5alpha,6beta)]-6-[[[4-[2-(1H-imidazol-1-yl)ethyl]-1-piperidinyl]methylene]amino]-3,3-dimethyl-7-oxo-4-thia-1-azabicyclo[3.2.0]heptane-2-carboxylic acid hydrate hydrochloride]
MIC [1, 46]: 0.062 µg/mL | MIC [2, 47]: 0.25 µg/mL | MIC [3, 48]: 2 µg/mL | MIC [4, 49]: 0.5 µg/mL | MIC [5, 50]: 0.25 µg/mL | MIC ([6]; Enterobacter cloacae, 24): 2 µg/mL | MIC [7, 51]: 16 µg/mL | MIC [8, 52]: 0.5 µg/mL | MIC [9, 53]: 8 µg/mL | MIC ([10]; Escherichia coli, 4): 8 µg/mL | MIC ([11]; Escherichia coli, 503455): 1 µg/mL | MIC [12, 54]: 8 µg/mL | MIC [13, 55]: 1 µg/mL | MIC ([14]; Klebsiella pneumoniae, 4964): 0.5 µg/mL | MIC [15, 56]: 0.25 µg/mL | MIC [16, 55]: 0.25 µg/mL | MIC [17, 57]: 0.25 µg/mL | MIC [18, 55]: 0.062 µg/mL | MIC [19, 55]: > 128 µg/mL | MIC [21, 58]: > 128 µg/mL | MIC [45]: > 128 µg/mL | MIC [23, 59]: 0.5 µg/mL | MIC [24, 60]: 8 µg/mL | MIC [25, 61]: > 128 µg/mL | MIC [26, 62]: 0.5 µg/mL | MIC [27, 63]: 1 µg/mL | MIC [28, 64]: 0.5 µg/mL | MIC [29, 65]: > 128 µg/mL | MIC ([30]; Staphylococcus aureus): 32 µg/mL | MIC ([32]; Enterococcus faecalis, read-out: MIC): > 128 µg/mL | MIC [33, 66]: 1 µg/mL | MIC [34, 67]: 0.5 µg/mL | MIC [35, 68]: 0.5 µg/mL | MIC [36, 67]: 0.5 µg/mL | MIC [37, 67]: 0.5 µg/mL | MIC [38, 69]: 1 µg/mL | MIC [39, 67]: 0.25 µg/mL | MIC ([40]; Streptococcus pneumoniae, 6301): 4 µg/mL | MIC ([43]; Streptococcus pyogenes, 503782, read-out: MIC): 8 µg/mL | MIC ([44]; Salmonella enterica, TYPHI): 0.062 µg/mL

CC1(C)S[C@@H]2[C@H](N=CN3CCC(Cc4ncc[nH]4)CC3)C(=O)N2[C@H]1C(=O)O [Q, [2S-(2alpha,5alpha,6beta)]-6-[[[4-(1H-imidazol-2-yl-methyl)-1-piperidinyl]methylene]amino]-3,3-dimethyl-7-oxo-4-thia-1-azabicyclo[3.2.0]heptane-2-carboxylic acid hydrochloride]
MIC [1, 46]: 0.062 µg/mL | MIC [2, 47]: 64 µg/mL | MIC [3, 48]: 16 µg/mL | MIC [4, 49]: 4 µg/mL | MIC [5, 50]: 0.125 µg/mL | MIC ([6]; Enterobacter cloacae, 24, E. cloacae 24, read-out: MIC): 0.5 µg/mL | MIC [7, 51]: 16 µg/mL | MIC [8, 52]: 0.125 µg/mL | MIC [9, 53]: 0.062 µg/mL | MIC ([10]; Escherichia coli, 4, E. coli 4, read-out: MIC): 0.062 µg/mL | MIC ([11]; Escherichia coli, 503455, E. coli 503-455, read-out: MIC): 1 µg/mL | MIC [12, 54]: 0.062 µg/mL | MIC [13, 55]: 0.25 µg/mL | MIC ([14]; Klebsiella pneumoniae, 4964, K. pneumoniae 4964, read-out: MIC): 4 µg/mL | MIC [15, 56]: 0.5 µg/mL | MIC [16, 55]: 128 µg/mL | MIC [17, 57]: 4 µg/mL | MIC [18, 55]: 0.062 µg/mL | MIC [19, 55]: > 128 µg/mL | MIC [21, 58]: 128 µg/mL | MIC [45]: > 128 µg/mL | MIC ([22]; Pseudomonas aeruginosa, STONE130, read-out: MIC): > 128 µg/mL | MIC [23, 59]: 0.25 µg/mL | MIC [24, 60]: 8 µg/mL | MIC [25, 61]: > 128 µg/mL | MIC [26, 62]: 16 µg/mL | MIC [27, 63]: 8 µg/mL | MIC [28, 64]: 0.016 µg/mL | MIC [29, 65]: 128 µg/mL | MIC ([30]; Staphylococcus aureus, S. aureus Giorgio, read-out: MIC): 8 µg/mL | MIC [31, 65]: 8 µg/mL | MIC [33, 66]: 1 µg/mL | MIC [34, 67]: 0.125 µg/mL | MIC [35, 68]: 0.125 µg/mL | MIC [36, 67]: 0.125 µg/mL | MIC [37, 67]: 0.125 µg/mL | MIC [38, 69]: 0.5 µg/mL | MIC [39, 67]: 0.125 µg/mL | MIC ([44]; Salmonella enterica, TYPHI): 8 µg/mL
